Data from PMC6613765 (Journal of Virology, 2019).
pEC50: −log10 of the molar value. Counter-ions that a name gives are not always drawn. Like-named read-outs stand apart in the source and are kept apart here.

Columns and labels:
[1] = in vitro; settings: mouse
[2] = tested on: HCoV-NL63; assay: microbe, parasite or virus in culture; settings: Human coronavirus NL63, LLC-MK2, 72 h, read-out: HCoV-NL63 EC50
[3] = tested on: MHV-A59; assay: microbe, parasite or virus in culture; settings: Murine coronavirus, 72 h, read-out: MHV-A59 EC50
[4] = tested on: four CoVs (HCoV-OC43, HCoV-NL63, MERS-CoV, MHV-A59); assay: organism not typed; type: cell-based; settings: read-out: EC50 values against all CoVs
[5] = tested on: BHK-21 cells
[6] = tested on: LLC-MK2 cells
[7] = tested on: MHV-A59; settings: for pEC50: read-out: MHV-A59 EC50
[8] = tested on: HCoV-OC43-WT; settings: for pEC50: read-out: HCoV-OC43 EC50
[9] = tested on: HCoV-NL63; settings: for pEC50: read-out: HCoV-NL63 EC50
[10] = tested on: MERS-CoV; settings: for pEC50: read-out: MERS-CoV EC50
[11] = tested on: Vero E6 cells
[12] = tested on: DBT cells
[13] = tested on: HCoV-OC43-WT; set-up: species or system BALB/c mice
[14] = tested on: rOC43-ns2Del-Rluc; type: in vivo, BALB/c mice
[15] = tested on: pseudotyped MERS-CoV (HIV-1 backbone, spike protein of MERS-CoV); type: cell-based

C[C@@H]1C[C@@H]([C@H](O)CC2CC(=O)NC(=O)C2)C(=O)[C@@H](C)C1 [Cycloheximide]
CC50 [1]: 3.19 µM
pEC50 [2]: 5.58
pEC50 [3]: 5.28

C[C@H]1[C@H]2CC[C@H]3[C@@H]4CC=C5C[C@@H](N(C)C)CC[C@]5(C)[C@H]4CC[C@]23CN1C [Conessine]
CC50 [1]: > 20 µM
pEC50 [2]: 4.97
pEC50 [3]: 4.94

Clc1ccccc1CN1CCc2sccc2C1 [Ticlopidine]
CC50 [1]: > 20 µM
pEC50 [2]: 4.81
pEC50 [3]: 4.85

CNCCCN1c2ccccc2CCc2ccccc21 [Desipramine]
CC50 [1]: > 20 µM
pEC50 [2]: 5.18
pEC50 [3]: 5.06

CC[C@@H](C(=O)[C@@H](C)[C@@H](O)[C@H](C)[C@@H]1O[C@@H]([C@@H](CC)C(=O)O)CC[C@@H]1C)[C@H]1O[C@]2(C=C[C@@H](O)[C@]3(CC[C@@](C)([C@H]4CC[C@](O)(CC)[C@H](C)O4)O3)O2)[C@H](C)C[C@@H]1C [Salinomycin sodium]
CC50 [1]: 2.45 µM
pEC50 [2]: 5.24
pEC50 [3]: 5.29

CCCCCCOc1ccccc1C(N)=O [Exalamide]
CC50 [1]: > 20 µM
pEC50 [2]: 4.76
pEC50 [3]: 4.79

COc1c(C)c2c(c(O)c1C/C=C(\C)CCC(=O)OCCN1CCOCC1)C(=O)OC2 [Mycophenolate mofetil]
pEC50 [4]: > 5.30
CC50 ([5]; hamster): 3.43 µM
CC50 ([6]; rhesus monkey): 3.01 µM
CC50 [1]: 3.33 µM
pEC50 [2]: 6.64
pEC50 [3]: 6.57

COc1ccc2cc1Oc1ccc(cc1)C[C@H]1c3cc(c(OC)cc3CCN1C)Oc1c(OC)c(OC)cc3c1[C@H](C2)N(C)CC3 [Tetrandrine]
CC50 [1]: > 20 µM
pEC50 [2]: 5.69
pEC50 [3]: 5.32

CC(C)[C@@H]1NC(=O)[C@H](C)OC(=O)[C@@H](C(C)C)NC(=O)[C@@H](C(C)C)OC(=O)[C@H](C(C)C)NC(=O)[C@H](C)OC(=O)[C@@H](C(C)C)NC(=O)[C@@H](C(C)C)OC(=O)[C@H](C(C)C)NC(=O)[C@H](C)OC(=O)[C@@H](C(C)C)NC(=O)[C@@H](C(C)C)OC1=O [Valinomycin]
CC50 [1]: 5.11 µM
pEC50 [2]: 5.72
pEC50 [3]: 5.17

Nc1ccc(/N=N/c2ccccc2)c(N)n1 [Phenazopyridine]
pEC50 [4]: > 5.30
SI (CC50/EC50), MHV-A59 [7]: > 25.97
CC50 ([5]; hamster): > 20 µM
CC50 ([6]; rhesus monkey): > 20 µM
CC50 [1]: > 20 µM
pEC50 [2]: 5.69
pEC50 [3]: 6.11

CN(C)CCN(Cc1ccc(Cl)cc1)c1ccccn1 [Chloropyramine]
CC50 [1]: > 20 µM
pEC50 [2]: 4.85
pEC50 [3]: 5.62

CC(=O)Oc1cc2c(c(C)c1OC(C)=O)CC=C1[C@@]2(C)CC[C@@]2(C)C3C[C@](C)(C(=O)O)CC[C@]3(C)CC[C@]12C (some centres unmarked) [Dihydrocelastryl diacetate]
pEC50 [8]: 5.77
pEC50 [9]: 6.19
pEC50 [10]: 4.98
pEC50 [7]: 5.37
CC50 [5]: > 20 µM
CC50 [6]: > 20 µM
CC50 [11]: > 20 µM
CC50 [12]: > 20 µM

COc1c(C)c2c(c(O)c1C/C=C(\C)CCC(=O)O)C(=O)OC2 [Mycophenolic acid]
pEC50 [4]: > 5.30
SI (CC50/EC50), HCoV-NL63 [9]: 19.11
CC50 ([5]; hamster): 3.55 µM
CC50 ([6]; rhesus monkey): 3.44 µM
CC50 [1]: 4.18 µM
pEC50 [2]: 6.74
pEC50 [3]: 6.77

O[C@H]1[C@H]2c3cc4c(cc3CN3CCC(=C[C@@H]1O)[C@H]23)OCO4 [Lycorine]
HCoV-OC43 nucleocapsid protein in mouse brain coronal sections (IHC) ([13]; in vivo): present only in the PBS-DMSO-treated group, not in the lycorine-treated group
viral loads in the brain and spinal cord ([13]; mouse, in vivo): under the limit of detection
bioluminescence signal in the brain ([14]; 15 mg/kg daily, 2, 3 and 4 days postinoculation): no signal was detected
Rluc activity in PBS-DMSO-treated mice relative to treated mice ([14]; mouse brain, 72 h postinoculation, 15 mg/kg): ~2 × 10^5 fold
SI (CC50/EC50), HCoV-OC43 [8]: 29.13
CC50 ([5]; hamster): 4.37 µM
CC50 ([6]; rhesus monkey): 3.81 µM
CC50 [1]: 3.51 µM
pEC50 [2]: 6.33
pEC50 [3]: 6.51

COc1ccc2c(c1)[nH]c1c(C)nccc12 [Harmine]
CC50 [1]: > 20 µM
pEC50 [2]: 4.87
pEC50 [3]: 4.86

O=C(Nc1ccccc1)OCC(CN1CCCCC1)OC(=O)Nc1ccccc1 (centres unmarked) [Diperodon]
CC50 [1]: 14.5 µM
pEC50 [2]: 5.31
pEC50 [3]: 5.70

COC(=O)[C@]1(C)CC[C@]2(C)CC[C@]3(C)C4=CC=C5C(=CC(=O)C(O)=C5C)[C@]4(C)CC[C@@]3(C)[C@@H]2C1 [Pristimerin]
CC50 [1]: > 20 µM
pEC50 [2]: 5.79
pEC50 [3]: 5.04

CCCCCC[C@H]1C(=O)O[C@H](C)[C@H](NC(=O)c2cccc(NC=O)c2O)C(=O)O[C@@H](C)[C@@H]1OC(=O)CC(C)C [Antimycin A]
CC50 [1]: 3.98 µM
pEC50 [2]: 5.22
pEC50 [3]: 5.27

Monensin sodium
pEC50 [4]: > 5.30
pEC50 [8]: 5.42
pEC50 [9]: 5.81
pEC50 [10]: 5.49
pEC50 [7]: 6.74

CC[C@H]1/C=C/C=C/C[C@@H](C)[C@H](O)[C@@](C)(O)C(=O)[C@@H](C)[C@H](O)[C@@H](C)C(=O)[C@@H](C)[C@H](O)[C@@H](C)/C=C/C(=O)O[C@@H]2[C@H](C)[C@H](CC1)O[C@]1(CC[C@H](C)[C@H](C[C@@H](C)O)O1)[C@H]2C [Oligomycin]
CC50 [1]: 6.78 µM
pEC50 [2]: 5.58
pEC50 [3]: 5.19

CCN(CC)CCOc1ccc2c(c1)C(=O)c1cc(OCCN(CC)CC)ccc1-2 [Tilorone]
CC50 [1]: > 20 µM
pEC50 [2]: 5.16
pEC50 [3]: 4.79

Cc1cc(/C=C/c2ccc3cc(N(C)C)ccc3[n+]2C)c(C)n1-c1ccccc1 [Pyrvinium pamoate]
pEC50 [4]: > 5.30
pEC50 [2]: 5.47

CN(C)CCCN1c2ccccc2Sc2ccccc21 [Promazine]
CC50 [1]: > 20 µM
pEC50 [2]: 5.86
pEC50 [3]: 6.29

CC[C@H]1CN2CCc3cc(OC)c(OC)cc3[C@@H]2C[C@@H]1C[C@H]1NCCc2cc(OC)c(OC)cc21 [Emetine]
pEC50 [4]: > 5.30
luciferase activity reduced compared with control [15]: 50 fold
SI (CC50/EC50), MERS-CoV [10]: 9.06
CC50 ([5]; hamster): 2.69 µM
CC50 ([6]; rhesus monkey): 3.63 µM
CC50 [1]: 3.51 µM
pEC50 [2]: 5.84
pEC50 [3]: 6.92

COc1cc2c3cc1Oc1c(OC)c(OC)cc4c1[C@@H](Cc1ccc(O)c(c1)Oc1ccc(cc1)C[C@@H]3N(C)CC2)N(C)CC4 [Berbamine]
CC50 [1]: > 20 µM
pEC50 [2]: 5.02
pEC50 [3]: 4.96

CCN(CC)CCNc1ccc(CO)c2sc3ccccc3c(=O)c12 [Hycanthone]
CC50 [1]: 4.19 µM
pEC50 [2]: 5.24
pEC50 [3]: 5.24

C=CCc1ccccc1OCC(O)CNC(C)C (centres unmarked) [Alprenolol]
CC50 [1]: > 20 µM
pEC50 [2]: 4.93
pEC50 [3]: 4.85

CC(=O)[O][Hg][c]1ccccc1 [Phenylmercuric acetate]
pEC50 [8]: 5.66
pEC50 [9]: 5.17
pEC50 [10]: 5.19
pEC50 [7]: 5.17
CC50 [5]: 5.35 µM
CC50 [6]: 5.47 µM
CC50 [11]: 5.39 µM
CC50 [12]: 5.97 µM

COc1cc2nc(N3CCN(C(=O)C4COc5ccccc5O4)CC3)nc(N)c2cc1OC (centres unmarked) [Doxazosin mesylate]
CC50 [1]: > 20 µM
pEC50 [2]: 4.86
pEC50 [3]: 4.84

CCN(CC)CCCC(C)Nc1ccnc2cc(Cl)ccc12 (centres unmarked) [Chloroquine]
antiviral activity in vivo, positive control ([13]; mouse): showed antiviral activity
CC50 [1]: > 20 µM
pEC50 [2]: 5.31
pEC50 [3]: 4.80

O=C(/C=C/c1ccccc1)c1ccc(O)cc1 [4'-Hydroxychalcone]
CC50 [1]: > 20 µM
pEC50 [2]: 5.14
pEC50 [3]: 5.01

COc1ccc(Cc2nccc3cc(OC)c(OC)cc23)cc1OC [Papaverine]
CC50 [1]: 12.4 µM
pEC50 [2]: 5.14
pEC50 [3]: 4.94
